Reference: US20240270821A1, “GIP/GLP1/GCG TRI-RECEPTOR AGONISTS AND USES THEREOF” (priority 2023, published 2024)
Like-named read-outs stand apart in the source and are kept apart here. Marks after values point to notes of the source that are not given here. Starred links: 1 amine or outer side, 2 acyl side, 3 side chain; linkers in the order of their positions; H or OH if unused. Non-standard residues stand in square brackets, D forms with d. Groups on a side chain read outwards from the residue. *: point of attachment. C20 diacid = O=C(O)CCCCCCCCCCCCCCCCCCC(=O)*; Phe(4-CN) = N#Cc1ccc(C[C@H](N)C(=O)O)cc1; αMePhe(2-F) = C[C@](N)(Cc1ccccc1F)C(=O)O; γGlu = O=C(O)[C@H](CCC(=O)[*:2])N[*:1]; εLys = N[C@@H](CCCCN[*:1])C(=O)[*:2]; αMeL = CC(C)C[C@](C)(N)C(=O)O; AEEA = NCCOCCOCC(=O)O; Aib = CC(C)(N)C(=O)O

Experiments:
human GLP1-R = human GLP1-R (Homo sapiens, UniProt P43220); assay: GLP1-R internalization assay in HEK293 cells; type: cell-based; conditions: for Internalization % TOP: normalized to maximum concentration of GLP-1 (100%)
hGcgR = hGcgR (Homo sapiens, UniProt P47871); assay: Functional cAMP activation in the presence of 0.1% casein (no HSA); type: cell-based;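 also: intracellular cAMP rise after 30 min at 37 °C, read by HTRF against a cAMP standard curve, scaled from buffer only (0%) to maximal control ligand response (100%)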
[1] = In vivo ileum (distal loop) absorption assay; conditions: Sprague Dawley, rat, 300 μM peptide with 100 mM C10, rats
Procedure: Ileum absorption of the exemplary polypeptides in the presence of C10 in rats is evaluated using a previously reported intestinal closed loop model (Lawrence, S. A.; Blankenship, R.; Brown, […].; Ellis, B.; Thangaraju, A.; Datta-Mannan, A., Influence of FcRn binding properties on the gastrointestinal absorption and exposure profile of Fc molecules. […] Overnight fasted Sprague Dawley rats with body weights between 250-280 grams are anesthetized by inhaling isoflurane and placed on a warm surgical table maintained by circulating water at 37 °C. The surgical area is shaved, and the skin is disinfected with betadine scrub followed by 70% isopropyl alcohol. An approximately 2 cm ventral midline incision is made to expose intestine, and 10 cm of an ileum segment is tied off. The peptides are formulated with 100 mM C10 in Tris buffer (pH 8.0, 50 mM) at a final concentration of 300 μM. The formulations are administered directly into the ileum loop. […] Blood samples are collected into tubes containing […] (5%) and processed to plasma for subsequent analyses. Peptide concentrations in the plasma are determined by LC/MS.

hGLP-1R [2] = biological target: T1, hGLP-1R (Homo sapiens, UniProt P43220); assay: Functional cAMP activation in the presence of 0.1% casein (no HSA); type: cell-based;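 also: intracellular cAMP rise after 30 min at 37 °C read by HTRF, normalized between buffer only (0%) and maximal control ligand (100%), four-parameter variable-slope fit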
Target sequence in this assay (P43220 24-463): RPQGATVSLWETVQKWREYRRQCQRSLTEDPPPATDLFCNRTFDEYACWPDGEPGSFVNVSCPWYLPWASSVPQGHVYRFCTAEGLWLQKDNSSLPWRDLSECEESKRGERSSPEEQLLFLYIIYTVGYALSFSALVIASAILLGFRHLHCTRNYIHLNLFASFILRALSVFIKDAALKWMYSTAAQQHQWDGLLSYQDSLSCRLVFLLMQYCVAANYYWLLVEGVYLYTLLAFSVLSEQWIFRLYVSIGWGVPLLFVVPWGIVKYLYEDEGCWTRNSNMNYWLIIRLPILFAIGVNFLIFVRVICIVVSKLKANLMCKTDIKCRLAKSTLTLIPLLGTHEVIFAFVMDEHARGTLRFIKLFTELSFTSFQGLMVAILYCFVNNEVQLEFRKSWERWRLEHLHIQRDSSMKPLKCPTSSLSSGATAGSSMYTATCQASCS

hGIPR [3] = biological target: T2, hGIPR (Homo sapiens, UniProt P48546); assay: as above; type: cell-based;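 also: intracellular cAMP rise after 30 min at 37 °C read by HTRF against a standard curve, scaled between buffer alone (0%) and top control ligand concentration (100%), four-parameter fit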
T2 sequence (P48546 22-466): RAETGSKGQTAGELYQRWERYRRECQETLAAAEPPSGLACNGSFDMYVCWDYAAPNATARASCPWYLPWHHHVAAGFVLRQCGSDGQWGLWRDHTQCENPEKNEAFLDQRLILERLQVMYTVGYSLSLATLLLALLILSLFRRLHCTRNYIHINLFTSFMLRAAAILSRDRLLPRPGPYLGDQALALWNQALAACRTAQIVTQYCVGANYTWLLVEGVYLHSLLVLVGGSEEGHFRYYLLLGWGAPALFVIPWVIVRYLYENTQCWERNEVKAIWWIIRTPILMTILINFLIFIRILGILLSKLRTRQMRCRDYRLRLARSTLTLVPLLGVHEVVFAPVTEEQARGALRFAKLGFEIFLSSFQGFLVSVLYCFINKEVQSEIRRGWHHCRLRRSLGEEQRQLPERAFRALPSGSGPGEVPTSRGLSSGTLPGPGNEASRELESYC

human GcgR = human GcgR (Homo sapiens, UniProt P47871); assay: Functional cAMP activity in the presence of 1% HSA; type: cell-based
hGLP-1R [4] = biological target: T1, hGLP-1R; assay: Functional cAMP activity in the presence of 1% HSA; type: cell-based
Target sequence in this assay (P43220 24-463): as the sequence (P43220 24-463) above

hGIPR [5] = biological target: T2, hGIPR; assay: Functional cAMP activity in the presence of 1% HSA; type: cell-based
[6] = Body weight in diet-induced obese C57BL/6 mice; type: in vivo; conditions: percent of starting weight, DIO mice, mean ± SEM n=5
Summary of the method: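 Daily weighing gave body weight as percent of starting value (mean±SEM, n=5) over 9-16 days of SC dosing, once daily or every 3 days, shortly before lights-off. Animals were weight-randomized male C57BL/6 DIO mice, 41-50 g, fed ad libitum on a calorie-rich diet.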

[7] = Pharmacokinetics in male Sprague Dawley rats, single subcutaneous administration; conditions: rat, in vivo, sc, 10 nmol/kg
Procedure: The pharmacokinetics of the exemplary analogs are evaluated following a single subcutaneous (SC) administration of 10 nmol/kg (dissolved in 40 mM Tris pH8) or single 4 mg/kg (mixed with 250 mM sodium decanoate/C10 in 40 mM Tris pH8) intrajejunal (IJ) administration to male Sprague Dawley rats. Blood samples are collected over 96 hours following SC administration and 72 hours following IJ dosing, and resulting individual plasma concentrations are used to calculate pharmacokinetic parameters. Peptide plasma (K3 EDTA) concentrations are determined using a qualified LC/MS method that measured the intact mass of the analog. Each peptide and an analog as an internal standard are extracted from rat plasma using methanol. A High Resolution Instrument was used for LC/MS detection.

hGLP-1R [8] = biological target: T1, hGLP-1R; assay: GLP-1R CHO cell β-arrestin recruitment assay; type: cell-based; design: host or cells: CHO-K1 (PathHunter, assay-ready frozen cells); conditions: for EC50: CHO-K1 PathHunter, β-arrestin-2, 0.1% casein, read-out: hGLP1R β-arrestin Rel EC50; for % Stimulation Max: normalized to GLP-1(7-36) as maximum control;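 as to all read-outs here: luminescence read after 90 min peptide exposure at 37 °C and a further 60 min with detection reagent at room temperature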
Target sequence in this assay (P43220 24-463): as the sequence (P43220 24-463) above
Target sequence in this assay (P32121 whole entry partner): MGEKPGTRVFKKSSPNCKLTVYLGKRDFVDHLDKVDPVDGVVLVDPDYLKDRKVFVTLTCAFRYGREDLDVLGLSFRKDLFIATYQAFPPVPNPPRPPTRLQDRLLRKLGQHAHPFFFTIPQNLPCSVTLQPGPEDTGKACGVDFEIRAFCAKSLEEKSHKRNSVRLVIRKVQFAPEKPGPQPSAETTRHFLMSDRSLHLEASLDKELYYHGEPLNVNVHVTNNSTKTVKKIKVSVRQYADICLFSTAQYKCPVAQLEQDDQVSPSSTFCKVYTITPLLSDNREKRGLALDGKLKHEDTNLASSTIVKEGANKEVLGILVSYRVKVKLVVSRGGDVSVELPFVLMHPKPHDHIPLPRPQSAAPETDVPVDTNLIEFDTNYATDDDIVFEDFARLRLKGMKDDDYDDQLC
Procedure: CHO-KI cells expressing Pro-Link-tagged Human GLP-1R and enzyme-acceptor-tagged β-arrestin-2 may be obtained from DiscoveRx and prepared as assay-ready frozen cells. Test peptides are solubilized in DMSO and serial dilutions are performed using the Echo acoustic dispenser (LabCyte). Assay media is the PathHunter Cell Assay Buffer (DiscoveRx) containing 0.1% w/v hydrolyzed Casein (Sigma). […] Plates are incubated for 90 minutes in a 37′C/5% C02 incubator and 10 μl of PathHunter detection reagent is added (DiscoveRx) and plates are incubated at room temperature for 60 minutes. Luminescence signal is measured. Peptide concentration-response curves fit to a four-parameter logistic model to calculate potency as an EC50.

[9] = HEK293 cells expressing SNAP-GLP-1R, read-out: GLP1R Internalization EC50
[10] = in the presence of 0.1% casein (no HSA), geometric mean, read-out: Relative cAMP EC50, hGcgR
[11] = in the presence of 0.1% casein (no HSA), geometric mean, read-out: Relative cAMP EC50, hGLP-1R
[12] = in the presence of 0.1% casein (no HSA), geometric mean, read-out: Relative cAMP EC50, hGIPR
[13] = read-out: cAMP Rel EC50, hGLP-1R

Sequence of human GLP1-R (P43220 24-463): as the sequence (P43220 24-463) above
Sequence of human GcgR (P47871 26-477): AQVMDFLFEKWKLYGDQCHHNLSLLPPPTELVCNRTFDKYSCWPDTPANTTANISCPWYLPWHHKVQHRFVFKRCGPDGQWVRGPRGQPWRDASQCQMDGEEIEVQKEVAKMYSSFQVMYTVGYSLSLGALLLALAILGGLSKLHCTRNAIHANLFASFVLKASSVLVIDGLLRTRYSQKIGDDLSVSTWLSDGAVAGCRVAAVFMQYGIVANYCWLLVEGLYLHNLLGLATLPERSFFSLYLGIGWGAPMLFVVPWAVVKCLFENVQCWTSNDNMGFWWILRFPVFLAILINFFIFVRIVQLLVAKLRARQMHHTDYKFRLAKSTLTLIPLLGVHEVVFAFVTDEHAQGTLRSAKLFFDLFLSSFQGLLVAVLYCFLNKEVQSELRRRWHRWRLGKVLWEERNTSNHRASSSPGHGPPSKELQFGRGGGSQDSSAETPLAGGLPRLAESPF
Sequence of hGcgR (P47871 26-477): as above

| Compound | Internalization % TOP (human GLP1-R) [%] | EC50 (human GLP1-R; [9]) [nM] | EC50 (hGcgR; [10]) [nM] | Body weight (%) ([6]; 10 nmol/kg SC Q3D, 14 days) | EC50 (hGLP-1R [2]; [11]) [nM] | EC50 (hGIPR [3]; [12]) [nM] | EC50 (human GcgR; read-out: cAMP Rel EC50, hGcgR) [nM] | CL/F [7] [mL/min/kg] | half-life [7] [h] | EC50 (hGLP-1R [8]) [nM] | % Stimulation Max (hGLP-1R [8]) [%] | EC50 (hGLP-1R [4]; [13]) [nM] | EC50 (hGIPR [5]; read-out: cAMP Rel EC50, hGIPR) [nM] | further results |
| --- | --- | --- | --- | --- | --- | --- | --- | --- | --- | --- | --- | --- | --- | --- |
| CC[C@H](C)[C@H](NC(=O)[C@H](Cc1ccccc1)NC(=O)[C@H](C)NC(=O)C(C)(C)NC(=O)[C@H](CCC(N)=O)NC(=O)[C@H](C)NC(=O)[C@H](CCCCNC(=O)COCCOCCNC(=O)CC[C@H](NC(=O)CCCCCCCCCCCCCCCCC(=O)O)C(=O)O)NC(=O)[C@H](CCCCN)NC(=O)[C@H](CC(=O)O)NC(=O)[C@H](CC(C)C)NC(=O)[C@](C)(CC(C)C)NC(=O)[C@H](CCC(N)=O)NC(=O)[C@H](CO)NC(=O)[C@H](Cc1ccccc1)NC(=O)[C@H](CC(=O)O)NC(=O)[C@H](CO)NC(=O)[C@@H](NC(=O)[C@H](Cc1ccccc1)NC(=O)[C@@H](NC(=O)CNC(=O)[C@H](CCC(N)=O)NC(=O)C(C)(C)NC(=O)[C@@H](N)Cc1ccc(O)cc1)[C@@H](C)O)[C@@H](C)O)C(=O)N[C@@H](CCC(=O)O)C(=O)N[C@@H](Cc1ccc(O)cc1)C(=O)N[C@@H](CC(C)C)C(=O)N[C@@H](CC(C)C)C(=O)N[C@@H](CCC(=O)O)C(=O)NC(C)(C)C(=O)NCC(=O)N1CCC[C@H]1C(=O)N[C@@H](CO)C(=O)N[C@@H](CO)C(=O)NCC(=O)N[C@@H](C)C(=O)N1CCC[C@H]1C(=O)N1CCC[C@H]1C(=O)N1CCC[C@H]1C(=O)N[C@@H](CO)C(=O)NCC(=O)N[C@@H](CO)C(N)=O [Example 151] | 55 | – | – | – | – | – | – | – | – | – | – | – | – | EC50 (human GLP1-R): 77.8 nM; EC50 (hGcgR): 3.5 nM; AUC [1]: 0.0886 µM·h; level at time molar at 10 min ([1]; 10 min, read-out: 10 min IL plasma concentration): 69 nM; level at time molar at 20 min ([1]; 20 min, read-out: 20 min IL plasma concentration): 95 nM; level at time molar at 40 min ([1]; 40 min, read-out: 40 min IL plasma concentration): 115 nM; level at time molar at 1 h ([1]; 60 min, read-out: 60 min IL plasma concentration): 124 nM; EC50 (hGLP-1R [2]): 1.6 nM; EC50 (hGIPR [3]): 0.0784 nM; EC50 (human GcgR): 1420 nM; EC50 (hGLP-1R [4]): 384 nM; EC50 (hGIPR [5]): 14.9 nM |
| H-Y[Aib]QGTFTSDYSI[αMeL]LDKK([AEEA-γGlu-C20 diacid])AQRAFIEYLLEGGPSSGEPPPSEG-NH2 [Example 289] | 86.5 | 10.9 | 5.02 | 82.32 ± 1.25 % | 0.449 | 0.382 | 1750 | 0.0645 | 22.4 | 5.96 | 47.5 | 139 | 105 | Body weight (%) ([6]; 10 nmol/kg SC QD, 16 days): 60.94 ± 1.87 % |
| H-Y[Aib]QGTFTSDYSI[αMeL]LDKQAAK([εLys-εLys-γGlu-C20 diacid])QFVEWLLA[Aib]GPSSGEPPPSEG-NH2 [Example 329] | 91.1 | 34 | 3.47 | – | 0.926 | 0.207 | 842 | 0.322 | 12.6 | 6.11 | 74.5 | 204 | 42.6 | – |
| H-Y[Aib]QGT[αMePhe(2-F)]TSD[Phe(4-CN)]SILLDKQAQK([AEEA-AEEA-γGlu-C20 diacid])AFIEYLLEGGPSSGEPPPSEG-NH2 [Example 321] | 92.8 | 27.1 | 4.49 | 87.14 +/− 0.59*** % | 0.798 | 0.0912 | 836 | 0.137 | 26.2 | 8.78 | 90.1 | 110 | 13 | – |
